The test concerns the target T1, ERα (Homo sapiens, UniProt P03372).
T1 construct: host or cells: MCF7
T1 sequence (P03372 1-595): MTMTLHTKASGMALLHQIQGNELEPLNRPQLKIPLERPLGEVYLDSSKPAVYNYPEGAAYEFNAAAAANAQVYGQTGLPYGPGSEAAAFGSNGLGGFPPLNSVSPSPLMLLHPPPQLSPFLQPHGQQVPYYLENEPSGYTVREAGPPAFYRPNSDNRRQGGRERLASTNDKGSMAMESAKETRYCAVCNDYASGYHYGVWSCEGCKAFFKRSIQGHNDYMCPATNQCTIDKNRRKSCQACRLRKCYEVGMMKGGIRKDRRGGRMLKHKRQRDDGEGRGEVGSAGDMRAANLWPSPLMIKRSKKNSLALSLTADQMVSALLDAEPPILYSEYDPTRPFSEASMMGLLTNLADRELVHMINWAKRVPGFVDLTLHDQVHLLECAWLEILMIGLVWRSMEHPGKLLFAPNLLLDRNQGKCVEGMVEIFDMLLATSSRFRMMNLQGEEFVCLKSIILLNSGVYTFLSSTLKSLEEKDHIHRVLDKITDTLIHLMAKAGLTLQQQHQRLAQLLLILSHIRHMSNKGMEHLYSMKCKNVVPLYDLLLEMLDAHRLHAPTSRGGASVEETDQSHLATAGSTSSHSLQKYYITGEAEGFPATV
In words: Estrogen receptor degradation activity: breast cancer cell ERα in cell western assay (MCF7 cells). Type of test: cell-based. To be noted: for % Degradation At 0.3 μM: 4 hours, relative to fulvestrant 0.1 μM positive control; for DC50: read-out: Degradation IC50. How it is done: Test: Estrogen Receptor Degradation Activity Said test involves measuring the in vitro degradation activity of the compounds of the Table 1a. The measurements of the degradation activities were made using a breast cancer cell ERα in cell western assay as described hereunder. MCF7 cells (ATCC) were seeded in 384 wells microplate (collagen coated) at a concentration of 10000 cells/30 μL per well in red phenol free MEM alpha medium (invitrogen) containing 5% charcoal dextran striped FBS. The following day, 9 points serial 1:5 dilution of each compound was added to the cells in 2.5p L at final concentrations ranging from 0.3-0.0000018 μM (in table 2), or 0.1 μM for fulvestrant (using as positive control). At 4 hours post compound addition the cells were fixed by adding 25 μL of formalin (final concentration 5% formalin containing 0.1% triton) for 10 minutes at room temperature and then washed twice with PBS. Then, 50 μL of LI-COR blocking buffer containing 0.1% Triton was added to plate for 30 minutes at room temperature. LI-COR blocking buffer was removed and cells were incubated overnight at cold room with 50 μL anti-ER rabbit monoclonal antibody (Thermo scientific MA1-39540) diluted at 1:1000 in LI-COR blocking buffer containing 0.1% tween-20. Wells which were treated with blocking buffer but no antibody were used as background control. Wells were washed twice with PBS (0.1% tween-20) and incubated at 37° C. for 60 minutes in LI-COR (0.1% tween-20) containing goat anti-rabbit antibody Alexa 488 (1:1000) and Syto-64 a DNA dye (2 μM final concentration). Cells were then washed 3 times in PBS and scanned in ACUMEN explorer (TTP-Labtech). Integrated intensities in the green fluorescence and red fluorescence were measured to determine the levels of ERα and DNA respectively. The degradation activity with respect to estrogen receptors in this test is given by the concentration which degrades 50% of the estrogen receptor (or IC50) in nM. […] DMSO−fulvestrant)).

Where [1] appears, read: 4 hours post compound addition, concentration which degrades 50% of the estrogen receptor.

Molecules are shown by their SMILES. pIC50: −log10 of the molar value.

For `Cl.O=C(O)c1ccc2c(c1)CCCC(c1ccc(Cl)c(F)c1Cl)=C2c1ccc(CC2CN(CCCF)C2)cc1` [Example 211, 8-(2,4-dichloro-3-fluorophenyl)-9-(4-((1-(3-fluoropropyl)azetidin-3-yl)methyl)phenyl)-6,7-dihydro-5H-benzo[7]annulene-3-carboxylic acid hydrochloride], the “% Degradation At 0.3 μM” value amounted to 96%. The compound also had a negative logarithm of the IC50 (pIC50) under setting [1] of 10.00.
For the compound `O=C(O)c1ccc2c(c1)CCCC(c1cc(CC(F)(F)F)ccc1F)=C2c1ccc(CC2CN(CCCF)C2)cc1` [Example 295, 8-(2-fluoro-5-(2,2,2-trifluoroethyl)phenyl)-9-(4-((1-(3-fluoropropyl)azetidin-3-yl)methyl)phenyl)-6,7-dihydro-5H-benzo[7]annulene-3-carboxylic acid], the “% Degradation At 0.3 μM” value was found to be 86%. Under setting [1], the DC50 stood at 0.7 nM.
Take `O=C(O)c1ccc2c(c1)CCCC(C1=CC3(C1)CC(F)(F)C3)=C2c1ccc(CC2CN(CCCF)C2)cc1` [Example 50, 8-(6,6-difluorospiro[3.3]hept-1-en-2-yl)-9-(4-((1-(3-fluoropropyl)azetidin-3-yl)methyl)phenyl)-6,7-dihydro-5H-benzo[7]annulene-3-carboxylic acid]: the “% Degradation At 0.3 μM” value turned out to be 88%. In addition, the DC50 under setting [1] worked out at 10.5 nM.
The like results for `O=C(O)c1ccc2c(c1)CCCC(c1ccc(F)cc1C(F)(F)F)=C2c1ccc(CC2CN(CCC(F)F)C2)cc1` [Example 276, 9-(4-((1-(3,3-difluoropropyl)azetidin-3-yl)methyl)phenyl)-8-(4-fluoro-2-(trifluoromethyl)phenyl)-6,7-dihydro-5H-benzo[7]annulene-3-carboxylic acid] were, in that order, 85% and 0.4 nM.
The like results for `COc1c(C(=O)O)ccc2c1CCCC(c1ccc(F)cc1C(F)(F)F)=C2c1ccc(CC2CN(CCCF)C2)cc1.Cl` [Example 283, 8-(4-fluoro-2-(trifluoromethyl)phenyl)-9-(4-((1-(3-fluoropropyl)azetidin-3-yl)methyl)phenyl)-4-methoxy-6,7-dihydro-5H-benzo[7]annulene-3-carboxylic acid hydrochloride] were, in that order, 90% and 93.3 nM.
As to `O=C(O)c1ccc2c(c1)CCCC(c1ccc(Cl)cc1Cl)=C2c1ccc(C(=O)C2CN(CCCF)C2)cc1` [Example 39, 8-(2,4-Dichlorophenyl)-9-(4-(1-(3-fluoropropyl)azetidine-3-carbonyl)phenyl)-6,7-dihydro-5H-benzo[7]annulene-3-carboxylic Acid], the “% Degradation At 0.3 μM” value worked out at 92%. The DC50 under setting [1] worked out at 1.2 nM.
The like results for `C[C@H]1CC[C@H](C2=C(c3ccc(CC4CN(CCCF)C4)cc3)c3ccc(C(=O)O)cc3CCC2)CC1` [Example 15, 9-(4-((1-(3-fluoropropyl)azetidin-3-yl)methyl)phenyl)-8-((1r,4r)-4-methylcyclohexyl)-6,7-dihydro-5H-benzo[7]annulene-3-carboxylic acid] were, in that order, 86% and 4 nM.
For `O=C(O)c1ccc2c(c1)CCCC(c1ccc(Cl)cc1Cl)=C2c1ccc(CC2CN(CCC(F)(F)F)C2)cc1` [Example 261, 8-(2,4-dichlorophenyl)-9-(4-((1-(3,3,3-trifluoropropyl)azetidin-3-yl)methyl)phenyl)-6,7-dihydro-5H-benzo[7]annulene-3-carboxylic acid], the “% Degradation At 0.3 μM” value is recorded as 89%. For the same compound, the DC50 under setting [1] came to 0.8 nM.
The like results for `NC(c1ccc(C2=C(c3ccc(Cl)cc3Cl)CCCc3cc(C(=O)O)ccc32)cc1)C1CN(CCCF)C1` (single isomer, unassigned; isomer 1) [Example 243, 9-(4-(amino(1-(3-fluoropropyl)azetidin-3-yl)methyl)phenyl)-8-(2,4-dichlorophenyl)-6,7-dihydro-5H-benzo[7]annulene-3-carboxylic Acid Isomer 1] were, in that order, 78% and 15.6 nM.
In the same order, the values of `O=C(O)c1ccc2c(c1)CCCC(c1ccc(F)cc1Cl)=C2c1ccc(CC2(F)CN(CCCF)C2)cc1` [Example 242, 8-(2-chloro-4-fluorophenyl)-9-(4-((3-fluoro-1-(3-fluoropropyl)azetidin-3-yl)methyl)phenyl)-6,7-dihydro-5H-benzo[7]annulene-3-carboxylic acid] are 78% and 1.7 nM.
In the same order, the values of `COc1ccc(C2=C(c3ccc(CC4CN(CCCF)C4)cc3)c3ccc(C(=O)O)cc3CCC2)c(F)c1` [Example 16, 8-(2-fluoro-4-methoxyphenyl)-9-(4-((1-(3-fluoropropyl)azetidin-3-yl)methyl)phenyl)-6,7-dihydro-5H-benzo[7]annulene-3-carboxylic acid] are 94% and 0.4 nM.
For the compound `Cc1cc(Cl)ccc1C1=C(c2ccc(CC3CN(CCC(F)F)C3)cc2)c2ccc(C(=O)O)cc2CCC1` [Example 282, 8-(4-chloro-2-methylphenyl)-9-(4-((1-(3,3-difluoropropyl)azetidin-3-yl)methyl)phenyl)-6,7-dihydro-5H-benzo[7]annulene-3-carboxylic acid], the “% Degradation At 0.3 μM” value turned out to be 86%. In addition, the DC50 under setting [1] is 0.4 nM.
Regarding `Cl.O=C(O)c1ccc2c(c1)CCCC(c1ccc(C(F)(F)F)cc1)=C2c1ccc(CC2CN(CCCF)C2)cc1` [Example 318, 9-(4-((1-(3-fluoropropyl)azetidin-3-yl)methyl)phenyl)-8-(4-(trifluoromethyl)phenyl)-6,7-dihydro-5H-benzo[7]annulene-3-carboxylic acid hydrochloride], the “% Degradation At 0.3 μM” value stood at 94%. Besides, the DC50 under setting [1] is 0.6 nM.
The like results for `O=C(O)c1ccc2c(c1)CCCC(c1cc(F)c(F)c(F)c1)=C2c1ccc(CC2CN(CCCF)C2)cc1` [Example 267, 9-(4-((1-(3-fluoropropyl)azetidin-3-yl)methyl)phenyl)-8-(3,4,5-trifluorophenyl)-6,7-dihydro-5H-benzo[7]annulene-3-carboxylic acid] were, in that order, 89% and 0.8 nM.
In the same order, the values of `CC1CCc2cc(C(=O)O)ccc2C(c2ccc(CC3CN(CCCF)C3)cc2)=C1c1ccc(Cl)cc1` (single isomer, unassigned) [Example 328, 18-(4-chlorophenyl)-9-(4-((1-(3-fluoropropyl)azetidin-3-yl)methyl)phenyl)-7-methyl-6,7-dihydro-5H-benzo[7]annulene-3-carboxylic acid] are 88% and 0.4 nM.
The like results for `Cl.O=C(O)c1ccc2c(c1)SCCC(c1ccc(Cl)cc1Cl)=C2c1ccc(CC2CN(CCCF)C2)cc1` [Example 52, 4-(2,4-dichlorophenyl)-5-(4-((1-(3-fluoropropyl)azetidin-3-yl)methyl)phenyl)-2,3-dihydrobenzo[b]thiepine-8-carboxylic acid] were, in that order, 54% and 255 nM.
Consider `Cc1c(C2=C(c3ccc(CC4CN(CCC(F)F)C4)cc3)c3ccc(C(=O)O)cc3CCC2)ccc(Cl)c1F` [Example 292, 8-(4-chloro-3-fluoro-2-methylphenyl)-9-(4-((1-(3,3-difluoropropyl)azetidin-3-yl)methyl)phenyl)-6,7-dihydro-5H-benzo[7]annulene-3-carboxylic acid], for which the “% Degradation At 0.3 μM” value turned out to be 93%. The DC50 under setting [1] was found to be 0.4 nM.
In the same order, the values of `O=C(O)c1ccc2c(c1)CCCC(c1cnccc1C(F)(F)F)=C2c1ccc(CC2CN(CCCF)C2)cc1` [Example 214, 9-(4-((1-(3-fluoropropyl)azetidin-3-yl)methyl)phenyl)-8-(4-(trifluoromethyl)pyridin-3-yl)-6,7-dihydro-5H-benzo[7]annulene-3-carboxylic acid] are 86% and 2.8 nM.

For the origin of these results see patent US12595230B2, “Substituted 6,7-dihydro-5H-benzo[7]annulene compounds and their derivatives, processes for their preparation and therapeutic uses thereof” (Sanofi, priority 2020, dated 2026).
